From US4971967A, “Quinolinecarboxylic acid derivatives, antibacterial compositions and use” (Kanebo Ltd, priority 1989, dated 1990)
≈ marks a conversion by molar mass, not a printed value.

Columns and labels:
Proteus vulgaris OX-19 = test: Antibacterial activity (MIC), Proteus vulgaris OX-19; assay type: cell-based; details: OX19; Proteus vulgaris OX-19, Gram -; read-out: Minimum inhibitory concentration (MIC)
Summary of the method: (§1)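 MIC determined by the Japan Society of Chemotherapy standard method. Compounds dissolved at 5000 μg/ml (stock) in 0.1 N NaOH or sterile water, then diluted with sterile water to a 1000 μg/ml standard solution.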

[1] = system: Streptococcus faecalis IID 682; test: Antibacterial activity (MIC), Streptococcus faecalis IID 682; assay type: cell-based; details: Enterococcus faecalis, IID682, Streptococcus faecalis IID 682, Gram +; read-out: Minimum inhibitory concentration (MIC)
Summary of the method: as §1

[2] = system: Acinetobacter calcoaceticus AC 54; test: Antibacterial activity (MIC), Acinetobacter calcoaceticus AC 54; assay type: cell-based; details: AC54; Acinetobacter calcoaceticus AC 54, Gram -; read-out: Minimum inhibitory concentration (MIC)
Summary of the method: as §1

Shigella sonnei EW-33 = test: Antibacterial activity (MIC), Shigella sonnei EW-33; assay type: cell-based; details: Shigella sonnei, EW33, Shigella sonnei EW-33, Gram -; read-out: Minimum inhibitory concentration (MIC)
Summary of the method: as §1

[3] = system: Escherichia coli NIHJ JC-2; test: Antibacterial activity (MIC), E. coli NIHJ JC-2; assay type: cell-based; details: NIHJJC2; Escherichia coli NIHJ JC-2, Gram -; read-out: Minimum inhibitory concentration (MIC)
Summary of the method: as §1

[4] = system: Staphylococcus epidermidis IAM-1296; test: Antibacterial activity (MIC), S. epidermidis IAM-1296; assay type: cell-based; details: Staphylococcus epidermidis, IAM1296, Staphylococcus epidermidis IAM-1296, Gram +; read-out: Minimum inhibitory concentration (MIC)
Summary of the method: as §1

Enterobacter cloacae 963 = test: Antibacterial activity (MIC), Enterobacter cloacae 963; assay type: cell-based; details: Enterobacter cloacae, 963, Enterobacter cloacae 963, Gram -; read-out: Minimum inhibitory concentration (MIC)
Summary of the method: as §1

[5] = system: Citrobacter freundii NIHJ 10018-68; test: Antibacterial activity (MIC), Citrobacter freundii NIHJ 10018-68; assay type: cell-based; details: Citrobacter freundii, NIHJ10018, Citrobacter freundii NIHJ 10018-68, Gram -; read-out: Minimum inhibitory concentration (MIC)
Summary of the method: as §1

[6] = system: Serratia marcescens IAM 1184; test: Antibacterial activity (MIC), Serratia marcescens IAM 1184; assay type: cell-based; details: Serratia marcescens, IAM1184, Serratia marcescens IAM 1184, Gram -; read-out: Minimum inhibitory concentration (MIC)
Summary of the method: as §1

[7] = system: Staphylococcus aureus IID 803; test: Effect on treatment of general infectious disease, S. aureus IID 803 (Experiment 4); assay type: in vivo, ddY male mice infected with Staphylococcus aureus; details: IID803, 168 h, oral, 1 h after i.p. infection, 2.1×10^7 CFU/mouse, survival after one week
Procedure: (§2) The test microorganisms were subjected to standing culture in Trypto-Soya Agar "Nissui" (made by Nissui Seiyaku K.K., Japan) at 37° C. for 16 to 18 hours. The culture was then diluted with PBS (Dulbecco's phosphate buffered saline) and mixed with an equivalent amount of 10% (w/v) Mucin (BACTO MUCIN BACTERIOLOGICAL, made by Difco Co.) to prepare a microorganism solution. The thus prepared microorganism solution (0.5 ml each) was intraperitoneally inoculated to ddY male mice (5 weeks age, weighing 25-28 g, 5 mice in each group), to infect the animals. One hour after the infection, the compound (A) or (J) of the present invention or the known compound (X) suspended in 1% (w/v) aqueous gum arabic or the known compound (Y) dissolved in sterilized distilled water was orally adiministered to mice.
(§3) The mice were daily observed for one week, and from the survival number of mice after one week, the 50% effective dose (ED50) was calculated by Weil method.
Staphylococcus aureus IID 803 (2.1×10^7 CFU/mouse)
(§4) The procedure of Experiment 3 was repeated except that ddY male mice weighing 24 to 28 g were employed.

[8] = system: Klebsiella pneumoniae PCI-602; test: Antibacterial activity (MIC), Klebsiella pneumoniae PCI-602; assay type: cell-based; details: PCI602; Klebsiella pneumoniae PCI-602, Gram -; read-out: Minimum inhibitory concentration (MIC)
Summary of the method: as §1

[9] = Acute toxicity (LD50) (Experiment 6); details: mouse, in vivo; oral, mice fasted 18 hours, observed for a week
Procedure: (§5) The compound (O) or (P) of the present invention was suspended in sterilized distilled water to prepare a suspension. The suspension was orally adminstered to ddY male mice (5 weeks age, weighing 20 to 25 g, 5 mice in each group), which had been fasted for 18 hours.

[10] = system: Pseudomonas aeruginosa IFO 3445; test: Antibacterial activity (MIC), P. aeruginosa IFO 3445; assay type: cell-based; details: Pseudomonas aeruginosa, IFO3445, Pseudomonas aeruginosa IFO 3445, Gram -; read-out: Minimum inhibitory concentration (MIC)
Summary of the method: as §1

[11] = system: Enterobacter aerogenes ATCC 13048; test: Antibacterial activity (MIC), Enterobacter aerogenes ATCC 13048; assay type: cell-based; details: Klebsiella aerogenes, ATCC13048; Enterobacter aerogenes ATCC 13048, Gram -; read-out: Minimum inhibitory concentration (MIC)
Summary of the method: as §1

[12] = system: Micrococcus luteus ATCC 9341; test: Antibacterial activity (MIC), Micrococcus luteus ATCC 9341; assay type: cell-based; details: ATCC9341; Micrococcus luteus ATCC 9341, Gram +; read-out: Minimum inhibitory concentration (MIC)
Summary of the method: as §1

[13] = system: Morganella morganii IFO 3848; test: Antibacterial activity (MIC), Morganella morganii IFO 3848; assay type: cell-based; details: Morganella morganii, IFO3848, Morganella morganii IFO 3848, Gram -; read-out: Minimum inhibitory concentration (MIC)
Summary of the method: as §1

[14] = Low toxicity (Experiments 5 and 6); assay type: in vivo, ddY male mice; details: result in words
Procedure: The compound (A) or (J) of the present invention was suspended in 1% (w/v) aqueous gum arabic to prepare a suspension in concentration of 100 mg/ml. The suspension was orally administered to ddY male mice (5 weeks age, weighing 20 to 25 g, 5 mice in each group), which had been fasted for 18 hours, at a rate of 2000 mg/kg body weight of the compound (A) or (J).
as §5

[15] = system: Pseudomonas aeruginosa E-2; test: Effect on treatment of general infectious disease, P. aeruginosa E-2 (Experiment 4); assay type: in vivo, ddY male mice infected with Pseudomonas aeruginosa; details: E2, 168 h, oral, 1 h after i.p. infection, 3.4×10^4 CFU/mouse, survival after one week
Procedure: as §2, §3
Pseudomonas aeruginosa E-2 (3.4×10^4 CFU/mouse)
as §4

[16] = system: Proteus mirabilis IFO 3849; test: Antibacterial activity (MIC), Proteus mirabilis IFO 3849; assay type: cell-based; details: IFO3849; Proteus mirabilis IFO 3849, Gram -; read-out: Minimum inhibitory concentration (MIC)
Summary of the method: as §1

[17] = system: Salmonella typhimurium IID 971; test: Antibacterial activity (MIC), Salmonella typhimurium IID 971; assay type: cell-based; details: Salmonella enterica; Salmonella typhimurium IID 971, Gram -; read-out: Minimum inhibitory concentration (MIC)
Summary of the method: as §1

[18] = system: Bacillus subtilis ATCC 6633; test: Antibacterial activity (MIC), Bacillus subtilis ATCC 6633; assay type: cell-based; details: Bacillus subtilis, ATCC6633, Bacillus subtilis ATCC 6633, Gram +; read-out: Minimum inhibitory concentration (MIC)
Summary of the method: as §1

[19] = system: Staphylococcus aureus IID 803; test: Antibacterial activity (MIC), S. aureus IID 803; assay type: cell-based; details: IID803; Staphylococcus aureus IID 803, Gram +; read-out: Minimum inhibitory concentration (MIC)
Summary of the method: as §1

infection = test: Protective effects against infection (Experiments 3 and 4); assay type: in vivo, ddY male mice; details: result in words
Procedure: as §2, §3, §4

[20] = system: Staphylococcus aureus FDA 209P JC-1; test: Antibacterial activity (MIC), S. aureus FDA 209P JC-1; assay type: cell-based; details: FDA209P; Staphylococcus aureus FDA 209P JC-1, Gram +; read-out: Minimum inhibitory concentration (MIC)
Summary of the method: as §1

[21] = system: Pseudomonas aeruginosa NCTC 10490; test: Antibacterial activity (MIC), P. aeruginosa NCTC 10490; assay type: cell-based; details: Pseudomonas aeruginosa, NCTC10490, Pseudomonas aeruginosa NCTC 10490, Gram -; read-out: Minimum inhibitory concentration (MIC)
Summary of the method: as §1

[22] = system: Pseudomonas aeruginosa E-2; test: Antibacterial activity (MIC), P. aeruginosa E-2; assay type: cell-based; details: E2; Pseudomonas aeruginosa E-2, Gram -; read-out: Minimum inhibitory concentration (MIC)
Summary of the method: as §1

Escherichia coli KC-14 = test: Antibacterial activity (MIC), E. coli KC-14; assay type: cell-based; details: KC14; Escherichia coli KC-14, Gram -; read-out: Minimum inhibitory concentration (MIC)
Summary of the method: as §1

Question: For `CC1CN(c2c(F)cc3c(=O)c(C(=O)O)c4scc5n4c3c2N(C)C5)CC(C)N1C` (stereo not drawn) [Compound (P), 9,1-(Methylimino)methano-7-fluoro-8-(3,4,5-trimethyl-1-piperazinyl)-5-oxo-5H-thiazolo[3,2-a]quinoline-4-carboxylic acid], which MIC (Proteus vulgaris OX-19) is on record?
Answer: The MIC was 0.1 µg/mL (≈ 0.232 µM).

Question: And the MIC [1]?
Answer: The MIC was 0.2 µg/mL (≈ 0.465 µM).

Question: And the MIC [2]?
Answer: The MIC was 0.025 µg/mL (≈ 0.0581 µM).

Question: And the MIC (Shigella sonnei EW-33)?
Answer: Its MIC is 0.05 µg/mL (≈ 0.116 µM).

Question: What about the MIC [3] of the same compound?
Answer: Its MIC is 0.1 µg/mL (≈ 0.232 µM).

Question: What about the MIC [4] of the same compound?
Answer: Its MIC is 0.1 µg/mL (≈ 0.232 µM).

Question: And the MIC (Enterobacter cloacae 963)?
Answer: Its MIC is 0.2 µg/mL (≈ 0.465 µM).

Question: What about the MIC [5] of the same compound?
Answer: The MIC was 1.56 µg/mL (≈ 3.62 µM).

Question: What about the MIC [6] of the same compound?
Answer: The MIC was 1.56 µg/mL (≈ 3.62 µM).

Question: And the ED50 [7]?
Answer: The ED50 was 1.9 mg/kg.

Question: And the MIC [8]?
Answer: The MIC was 0.006 µg/mL (≈ 0.0139 µM).

Question: And the LD50 at 168 h [9]?
Answer: The LD50 at 168 h was 1070 mg/kg.

Question: And the MIC [10]?
Answer: The MIC was 3.13 µg/mL (≈ 7.27 µM).

Question: What about the MIC [11] of the same compound?
Answer: The MIC was 0.2 µg/mL (≈ 0.465 µM).

Question: What about the MIC [12] of the same compound?
Answer: The MIC was 0.39 µg/mL (≈ 0.906 µM).

Question: What about the MIC [13] of the same compound?
Answer: The MIC was 0.39 µg/mL (≈ 0.906 µM).

Question: What about the toxicity [14] of the same compound?
Answer: Its toxicity is “low toxicity”.

Question: And the ED50 [15]?
Answer: Its ED50 is 11.1 mg/kg.

Question: What about the MIC [16] of the same compound?
Answer: Its MIC is 0.78 µg/mL (≈ 1.81 µM).

Question: What about the MIC [17] of the same compound?
Answer: The MIC was 0.39 µg/mL (≈ 0.906 µM).

Question: What about the MIC [18] of the same compound?
Answer: Its MIC is 0.006 µg/mL (≈ 0.0139 µM).

Question: What about the MIC [19] of the same compound?
Answer: Its MIC is 0.025 µg/mL (≈ 0.0581 µM).

Question: What about the “protective effects against infection” value (infection) of the same compound?
Answer: The value was “excellent protective effects against infection”.

Question: What about the MIC [20] of the same compound?
Answer: The MIC was 0.025 µg/mL (≈ 0.0581 µM).

Question: And the MIC [21]?
Answer: Its MIC is 1.56 µg/mL (≈ 3.62 µM).

Question: And the MIC [22]?
Answer: Its MIC is 1.56 µg/mL (≈ 3.62 µM).

Question: And the MIC (Escherichia coli KC-14)?
Answer: Its MIC is 0.1 µg/mL (≈ 0.232 µM).
